Results: US20130209439A1, “INHIBITORS OF PDE4 BINDING TO HSP20” (THE UNIVERSITY COURT OF THE UNIVERSITY OF GLASGOW, priority 2010, published 2013)

Experiments:
[1] = test system: pS16-Hsp20 in SH-SY5Y cells; assay: Cell based Hsp20-PDE4D disruptor assay, nucleofected SH-SY5Y cells, pS16-Hsp20 Western blot; parameters: species or system human; settings: SH-SY5Y cells nucleofected with 500 μM peptide, 2 hours
Description: FIG. 9. Disrupter induced HSP20 phosphorylation SH-SY5Y cells nucleofected with 500 μM of each peptide and incubated for 2 hours prior to harvesting. Each assay was blotted for Hsp20, pS16-Hsp20 and tubulin. Changes in levels of phospho-Hsp20 relative to DMSO only controls were quantified through densitometry analysis and each assay was normalised to α-tubulin loading control. The results are the average of three separate experiments and error bars represent SEM. *=p<0.05, **=p<0.01 compared to DMSO only controls (Student-T-test)
SDS-PAGE analysis was done on NuPage® pre-cast gels X-cell apparatus (Invitrogen, Paisley) using MES-SDS running buffer, Samples were reduced in Laemmli 2× loading buffer (4% SOS) with 5% β-mercaptoethanol. For Western Blotting (WB) analysis, samples were transferred using NuPage® X-cell blotting module onto a nitrocellulose membrane. Membranes were blocked using 5% Milk in 1×TBST (w/v). Antibodies were incubated in 1% milk in 1×TBST (w/v) for either 1 hour at room temperature or overnight at 4° C. Signals were detected using enhanced chemiluminescence system (Pierce) and developed on an X-omat film developer. Subsequent densitometry analysis was carried out using Quantity One (Bio-Rad).
SH-SY5Y cells (ATCC-CRL-2266) were grown in Dulbecco's Modified Eagle's Medium (DMEM) and F12-Ham's at a 1:1 ratio, media was supplemented with 10% (v/v) fetal bovine serum (FBS), 1% (v/v) L-Glutamine, 1% (v/v) Minimum Essential Medium—With Non-essential Amino Acids (MEM-NAA) and 1% (v/v) Pen/strep. Cells were cultured in a humidified, 5% (v/v) CO2, 37° C. incubator.
SH-SY5Y cells were nucleofected using Cell Line Nucleofector® Kit-V in accordance with manufacturers protocol (Amaxa Biosystems). Setting A-23 on the Nucleofector I device was used which increases cell viability. For each assay, 500 μM of disrupter peptide was incubated with 100 μl of nucleofection solution containing approximately 2×10^6 cells. After nucleofection cells were re-suspended in 500 μl of culture media before being transferred to a 6 well plate with a final volume of 2 ml per well. Cells were incubated for 2 hours prior to harvesting with […] containing protease and phosphatase inhibitors (Roche).
As the cell permeability of the peptides is unknown we used an electroporation technique to introduce the peptides into the SH-SY5Y cells. The Amaxa cell-line specific Nucleofector Kit V (Lonza) was used to transfect the peptides into the cells. […] Each assay used a final concentration of 500 μM of peptide in nucleofector solution containing approximately 2×10^6 SH-SY5Y cells. As peptides were dissolved in 100% DMSO, control transfections with DMSO only were used to compare any changes in phospho-Hsp20 levels. After each transfection the solution was reconstituted in culture media and incubated for 2 hours to allow for cell adhesion prior to the harvesting of viable cells.

His-Hsp20 = target: T1, His-Hsp20 (Homo sapiens, UniProt O14558); assay: SPOT peptide array overlaid with His-Hsp20; format: binding; settings: overlay with 10 μg/ml purified His-Hsp20
T1 construct: made in house; host or cells: E. coli BL21
T1 sequence (O14558 1-160): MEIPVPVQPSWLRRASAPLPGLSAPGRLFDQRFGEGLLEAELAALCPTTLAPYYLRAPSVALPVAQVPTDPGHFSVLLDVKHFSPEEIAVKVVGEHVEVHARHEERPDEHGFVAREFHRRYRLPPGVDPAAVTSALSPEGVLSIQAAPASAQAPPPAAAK
Description: A variety of peptides were generated and SPOT-synthesised onto slides which were then overlaid with 10 μg/ml of purified His-Hsp20. Interaction with peptides and Hsp20 was evaluated by probing slides with anti-His or Hsp20 antibodies and analysed using enhanced chemi-luminescence techniques, Negative controls used anti-His antibody only with no overlay of His-Hsp20 protein (data not shown). Positive interaction domains were then subjected to further rounds of truncations and key endogenous residues were substituted for non-native residues to ascertain what effects this would have in the binding of Hsp20.
This was done as described in detail elsewhere^41.
PDE4 isoform localisation invariably depends on protein-protein interactions, with PDE4s shown to associate with a diverse group of interacting partners such as RACK1^32, 36, βarrestin^36, β1-Ar^37, DISC1^38, the p75 neurotrophin receptor^39 and the cardiac IKs potassium channel^40. One method that has been pivotal in mapping the sites of association between PDE4s and their binding partners is peptide array^36. SPOT immobilised peptide libraries of PDE4 sequences have been utilised to accurately predict binding domains for partner proteins. Here we have employed this novel technique to define the HSP20 binding site within the sequence of PDE4D5, an isoform that is endogenously expressed in cardiomyocytes. Peptide arrays of overlapping 25-mer peptides, sequentially shifted by 5 amino acids and spanning the entire sequence of PDE4D5, were incubated with purified recombinant HSP20-6his. Dark spots represent positive areas of HSP20 interaction whereas clear spots are negative for the association (FIG. 4A). While no signal was observed when the arrays were overlaid with BSA, positive signals were obtained for 25mer peptides 93 to 96 following HSP20-6His overlay. Peptides 93 to 96 span the amino acid sequence Y^461-K^500 within the conserved catalytic domain of PDE4D5 (FIG. 4A: middle panels). […]

[2] = test system: cAMP in the vicinity of HSP20; assay: cAMP FRET with cytosolic and HSP20-targeted reporters in cardiac myocytes; format: cell-based, rat
Source text: FIG. 5. Measurement of relative cAMP concentration in the vicinity of HSP20 using targeted cAMP FRET probes. A, Representative traces showing FRET ratios that indicate relative cAMP concentrations measured by cytosolic and HSP20 targeted cAMP reporter constructs. B, Upper panel, graphical depiction of maximum FRET ratios achieved using both cytosolic and HSP20-targeted probes following treatment with isoprenaline (Iso), rolipram (Roli) and IBMX. Lower panel, images of the localisation of cytosolic and HSP20-targeted cAMP reporter constructs.
The Hsp20-targeted cAMP FRET probe was generated by cloning the Hsp20 open reading frame, excluding the stop codon, immediately 5′ to the EPACG-based FRET sensor^55. Hsp20 open reading frame was amplified from the Ultimate™ ORF clone IOH57317 (Invitrogen) using the following primers to incorporate HindIII restriction sites at both 5′ and 3′ ends: Forward 5′-gcacaagctt[…]-3′ (SEQ ID NO: 70) Reverse 5′-gcacaagctt[…]-3′ (SEQ ID NO: 71). […]
Primary cultures of ventricular cardiac myocytes were prepared from 1-3 day old Sprague-Dawley rats, as described above. […] FRET changes were measured following background subtraction by dividing the intensity of emissions at 480 nm and 545 nm, following excitation at 440 nm. Data are expressed as dR/R0, where R=fret ratio at time t (sec), R0=fret ratio at time zero, and dR=R−R0. […]

[3] = test system: Phospho-Ser16 HSP20 in HEKB2 cells; assay: Ser16 phosphorylation of HSP20 in HEKB2 cells overexpressing HSP20 (Western blot); format: cell-based; settings: HEKB2 cells
Description: FIG. 1. The phosphorylation of HSP20 at Ser16 is modulated by PDE4 activity in HEKB2 cells. A, HEKB2 cells overexpressing HSP20 or HSP20 ser16-Ala mutant were treated with isoprenaline for indicated times. Cellular lysates were blotted for HSP20 and Phospho-Ser16 HSP20. B, HEKB2 cells overexpressing HSP20 were treated with isoprenaline for indicated times, Cellular lysates were blotted for HSP20 and Phospho-Ser16 HSP20. C, HEKB2 cells overexpressing HSP20 were treated with isoprenaline for indicated times following pre-treatment with the PDE4-specific inhibitor, rolipram. Cellular lysates were blotted for HSP20 and Phospho-Ser16 HSP20. D, Quantifications of data from FIGS. 1B and 1C (n=4). * Denotes significance at a level p<0.05 E, Lysate from untransfected HEKB2 cells was blotted for HSP20 and Phospho-Ser16 HSP20.
(§1) HEK293B2 cells are a stable cell line overexpressing the GFP-tagged β2AR were cultured as previously described^48. HEK293B2 cells were transiently transfected with wild type HSP20 or a phosphorylation defective HSP20 (S16A) or a phosphorylation mimic HSP20 (S16D). Neonatal cardiac myocytes were prepared and cultured as previously described^30. Cell lysis, immunopurification and western blotting was done as described before by us in some detail^48. Briefly, HEK 293 cells were transiently transfected with wild-type HSP20 by using Polyfect Transfection Reagent (Qiagen). Transfected HEK 293 cells were treated with 10 μM bs906 or 10 μM control peptide for 0, 15, 30, 60 and 120 min. Control and treated transfected HEK 293 cells were then washed thrice with ice cold PBS (phosphate buffered saline) before cellular lysates were prepared. Cellular lysates were prepared in lysis buffer containing 25 mM Hepes, pH 7.5, 2.5 mM EDTA, 50 mM NaCl, 50 mM NaF, […], 10% (v/v) glycerol, 1% (v/v) Triton X-100 and Complete™ EDTA-free protease inhibitor cocktail tablets (Roche). Protein concentration of lysates were determined using the Bradford assay and all samples were equalised for protein concentration. Proteins were separated by SOS/PAGE (4-12% Bis-Tris gels) and transferred onto nitrocellulose membranes for Western blotting. Antibodies were used to detect phospho-proteins and native proteins in lysates from control and treated cells
In contrast to this, when we transfected these cells with a phospho-null mutant form, Ser16Ala-Hsp20, then no such change was observed (FIG. 1A). In order to evaluate whether PDE4 activity played a role in regulating this phosphorylation process in Hsp20-transfected HEKB2 cells, cells that had either been pre-treated or not with the PDE4 selective inhibitor rolipram were subsequently challenged with isoprenaline (1 μM) (FIGS. 1B and C). […] Endogenous levels of phospho-HSP20 or HSP20 were not detectable in HEKB2 cells (FIG. 1E).

[4] = test system: Phospho-Ser16 HSP20 in neonatal cardiac myocytes; assay: Ser16 phosphorylation of endogenous HSP20 in neonatal cardiac myocytes (Western blot); format: cell-based, rat
Description: FIG. 2. The phosphorylation of HSP20 at Ser16 is modulated by PDE4 activity in cardiac myocytes. A, Neonatal cardiac myocytes were treated with isoprenaline for indicated times with or without pre-treatment with the PDE4-specific inhibitor, rolipram. Cellular lysates were blotted for HSP20 and Phospho-Ser16 HSP20. B, Quantifications of data from FIG. 2A (n=3). * Denotes significance at a level p<0.05 over iso treatment.
as §1
To determine whether inhibition of PDE4 activity had similar effects on endogenous phospho-HSP20 levels in heart cells, similar experiments were undertaken using neonatal cardiomyocytes (FIG. 2).

| Molecule | binding of Hsp20 to peptide on array (His-Hsp20) | pS16-Hsp20 levels relative to DMSO only controls [1] | cAMP FRET response, HSP20-targeted reporter compared with cytosolic probe [2] | also measured |
| --- | --- | --- | --- | --- |
| Ac-FQNLTR-NH2 [Peptide 5] | shown to bind HSP20 | inability |  |  |
| COc1ccc(C2CNC(=O)C2)cc1OC1CCCC1 (stereo not drawn) [rolipram] |  |  | clearly greater in the HSP20 targeted reporter | isoprenaline-stimulated HSP20 phosphorylation ([3]; rolipram pre-treatment then isoprenaline 1 μM): increased isoprenaline-stimulated HSP20 phosphorylation; phospho-HSP20 levels compared to resting cells ([3]; rolipram treatment alone): clear increase in phospho-HSP20 levels; phospho-HSP20 levels ([4]; cardiomyocytes, PDE4 inhibition alone): marked increase in phospho-HSP20 levels; isoprenaline-induced increase in endogenous phospho-HSP20 levels ([4]; neonatal cardiomyocytes, rolipram pre-treatment): markedly augmented |
| CC(C)Cn1c(=O)n(C)c(=O)c2[nH]cnc21 [IBMX] |  |  | identical maximal response |  |

More lines, main results first:

| binding of Hsp20 to peptide on array (His-Hsp20) | Molecule | pS16-Hsp20 levels relative to DMSO only controls [1] | cAMP FRET response, HSP20-targeted reporter compared with cytosolic probe [2] | also measured |
| --- | --- | --- | --- | --- |
| shortest size | Ac-KLL-NH2 (Ac-Lys-Leu-Leu-NH2) [Peptide 10] | indistinguishable from DMSO only controls |  |  |
| shortest size | Ac-GFK-NH2 (Ac-Gly-Phe-Lys-NH2) [Peptide 17] | indistinguishable from DMSO only controls |  |  |
